According to PubChem BioAssay (NCI):
Several values for one entry are separate records, joined by “and”; a condition that tells them apart may be missing. Equal values may be shown once.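 96-well plates; 48 h exposure; 5 concentrations. Endpoints by linear interpolation between flanking doses. Not reached: highest tested concentration assigned. GI50: concentration for 50% inhibition of growth. At the TGI there is no net growth.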

Columns and labels:
Assay in all cases: NCI-60 cell line screen, 48 h
[1] = system: COLO 205 colon
[2] = system: KM12 colon
[3] = system: SF-268 CNS
[4] = system: HCT-15 colon
[5] = system: HL-60(TB) leukemia
[6] = system: SNB-75 CNS
[7] = system: TK-10 renal
[8] = system: NCI-H460 lung
[9] = system: NCI-H226 lung
[10] = system: MALME-3M melanoma
[11] = system: K-562 leukemia
[12] = system: RXF 393 renal
[13] = system: SNB-19 CNS
[14] = system: HCT-116 colon

| SMILES | TGI [1] [µM] | TGI [2] [µM] | TGI [3] [µM] | TGI [4] [µM] | TGI [5] [µM] | TGI [6] [µM] | TGI [7] [µM] | TGI [8] [µM] | TGI [9] [µM] | TGI [10] [µM] | TGI [11] [µM] | TGI [12] [µM] | TGI [13] [µM] | TGI [14] [µM] | GI50 [5] | GI50 [12] | GI50 [13] [µM] |
| --- | --- | --- | --- | --- | --- | --- | --- | --- | --- | --- | --- | --- | --- | --- | --- | --- | --- |
| CC1(O)/C(=N/O)CC2CC1C2(C)C (stereo not given) | > 100 | > 100 | > 100 | > 100 | > 100 | > 100 | > 100 | > 100 | > 100 | > 100 | > 100 | > 100 | > 100 |  |  |  |  |
| O=C(Cc1ccccc1)c1ccc2[nH]c(=O)oc2c1 | > 100 | > 100 | > 100 | > 100 | > 100 | 33.4 | > 100 | > 100 | 63.2 |  | > 100 | > 100 |  | > 100 |  |  |  |
| CC(=O)CCC[C@@H](C)[C@@H]1O[C@H]([C@@]2(C)CCC(=O)O2)C[C@H]2C(CSc3ccccc3)C(=O)O[C@@H]12 (stereo not given in full) | 31.4 | 28.9 | 55.1 | 47.3 | 12.8 | > 59.4 | 25.6 | > 57.5 | 37.5 | > 42.5 | > 100 | 15.9 | > 100 | 31.2 |  |  |  |
| CC1C[C@]2(C)C(=S)Nc3ccccc3[C@@H]2Nc2ccccc21 (stereo not given in full) | 33.8 | 28.9 | 16.4 | 50.8 | 77 | 61 | 39.5 | 29.6 | 36.6 | 30.8 | > 100 | 34.8 | 57.4 | 26.7 |  |  |  |
| [N-]=[N+]=Nc1ccc2c(c1)Sc1ccccc1N2CCCCCl | 82.3 | > 100 | > 100 | > 100 | 64.3 | > 100 | > 100 | > 100 | > 100 | > 100 | > 100 | > 100 | > 100 | > 100 |  |  |  |
| COC(=O)[C@H](Cc1ccccc1)NC(=O)N1CCN(C(=O)N[C@@H](Cc2ccccc2)C(=O)OC)CCN(C(=O)N[C@@H](Cc2ccccc2)C(=O)OC)CC1 | > 100 | > 100 | > 100 | > 100 | > 100 | > 100 | > 100 | > 100 | > 100 | > 100 | > 100 | > 100 | > 100 | > 100 |  |  |  |
| CCOC(=O)c1nc2ccc(C(F)(F)F)cc2nc1Oc1ccc(F)cc1 | > 100 | > 100 | > 100 | > 100 | > 100 | > 100 | > 100 | > 100 | > 100 |  | > 100 | > 100 | > 100 | > 100 |  |  |  |
| COc1ccc(OC)c2nc3c(C(=O)NCCN(C)C)cccc3nc12 | 11.9 | 22.3 | 27.6 | > 51.5 | 16.5 | 32.4 | 46.8 | 21.5 | 27.5 | 27.3 | 23.2 | 23.2 | > 100 | 20.6 |  |  |  |
| CC1N(C)C(=O)OC12CCN(CCCC(=O)c1ccc(F)cc1)CC2 (stereo not given) | > 100 | > 100 | > 100 | > 100 | > 100 | > 100 | > 100 | > 100 | > 100 | > 100 | > 100 | > 100 | > 100 | > 100 |  |  |  |
| CCOC(=O)CCC(NC(=O)c1ccc(Nc2nc3cc(C(F)(F)F)ccc3nc2-c2ccccc2)cc1)C(=O)OCC (stereo not given) | > 100 | > 100 | > 100 | > 100 | > 100 | > 100 | > 100 | > 100 | > 100 | > 100 | > 100 | > 100 | > 100 | > 100 |  |  |  |
| C=C1C(=O)C23CC1C[C@H](OC(C)=O)C2C1(C)C(OC(C)=O)C[C@H](O)C(C)(C)[C@H]1C(O)[C@@H]3OC(C)=O (stereo not given in full) | 14.5 | > 54.5 | 28.5 | 25.7 | 6.11 | 36.3 | 17 | > 60 | 45 | 19.9 | 10.9 | 19.9 | 44.3 | 16.2 |  |  |  |
| CN(C)CCNc1ccc2c(=O)n(CCN(C)C)c(=O)n3c4ccc(N)cc4c(=O)c1c23 | 1.26 | 7.52 | 1.25 | 1.08 | 0.278 | 0.442 | 6.13 | 0.56 | 0.573 | 0.352 | 0.0358 | 0.263 | 0.788 | 0.166 |  |  |  |
| Cc1sc2nc3n(c(=O)c2c1C)N=C(c1ccc(Cl)cc1)CS3 | > 100 | > 100 | > 100 | > 100 | > 100 | > 100 |  | > 100 | > 100 | > 100 | > 100 | > 100 |  | > 100 |  |  |  |
| O=C1N=C(c2ccccc2)O/C1=C\c1ccccc1 | > 100 | > 100 | > 100 | > 100 | > 100 | > 100 | > 100 | > 100 | > 100 | > 100 |  | > 100 | > 100 | > 100 |  |  |  |
| O=C1CCCC2=C1CC1=C(CCCC1=O)N2c1cccc2ccccc12 |  | > 100 | > 100 | > 100 | > 100 | > 100 | > 100 | > 100 | > 100 |  | > 100 | 54.4 | > 100 |  |  |  |  |
| COC(=N)C12C(N)=NC(OC)(OC)C1(C#N)C21C(=O)N(c2ccccc2)N=C1C (stereo not given) | > 100 | > 100 | > 100 | > 100 | > 100 | > 100 |  | > 100 | > 100 | > 100 | > 100 | > 100 | > 100 | > 100 |  |  |  |
| CC(=O)OC1COC(n2c(N)c(C#N)c(C)c(C#N)c2=S)C(OC(C)=O)C1OC(C)=O (stereo not given) |  | > 100 | > 100 | > 100 | > 100 | > 100 | > 100 | > 100 | > 100 | > 100 | > 100 | > 100 | > 100 |  | > 100 µM and 36.6 µM | 17.4 µM and 59.8 µM | > 100 |

| SMILES | TGI [1] [µM] | TGI [2] [µM] | TGI [3] [µM] | TGI [4] [µM] | TGI [5] [µM] | TGI [6] [µM] | TGI [7] [µM] | TGI [8] [µM] | TGI [9] [µM] | TGI [10] [µM] | TGI [11] [µM] | TGI [12] [µM] | TGI [13] [µM] | TGI [14] [µM] | GI50 [5] | GI50 [12] | GI50 [13] [µM] |
| --- | --- | --- | --- | --- | --- | --- | --- | --- | --- | --- | --- | --- | --- | --- | --- | --- | --- |
| CCCCc1c2c(nc3c1CCC/C3=C\c1ccccc1)C(=O)C(CN(C)C)CC2 (stereo not given) | 36.6 | 33.6 | 35.6 | 20.7 | 18.2 | 27 | 29.6 | 34.5 | 51.6 | 40.4 | 21.5 | 30.9 | 32.6 | 32.6 |  |  |  |
| COc1ccc2c3ccc4c(c3n(C)c2c1)C(=O)c1ccccc1C4=O | > 100 |  | > 100 | > 100 | > 100 | > 100 |  |  | > 100 | > 100 | > 100 | > 100 | > 100 | > 100 |  |  |  |
| S=C(Nc1cccc(Cl)c1)Nc1ccccn1 | > 100 | > 100 | > 100 | > 100 | > 100 | > 100 | > 100 | > 100 | > 100 | > 100 | > 100 | > 100 | > 100 | > 100 |  |  |  |
| COc1cc2cc(C(=O)N3CC(CCl)c4ccc(NCCN)cc43)[nH]c2c(OC)c1OC (stereo not given) | 2.55 | 1.07 | 1.29 | 4.33 | 0.226 | 0.571 | 6.08 | 4 | 1.76 | 0.391 | 0.572 | 0.327 | 3.13 | > 32.7 |  |  |  |
| Cc1cc2c(s1)C(=O)c1sccc1C2=O | 3.36 | 3 | 2.09 | 2.52 | > 100 | 1.18 | 6.91 | 3.23 | 3.37 | 0.311 |  | 2.46 | 3.04 | 2.46 |  |  |  |
| CC(C)CCC[C@@H](C)C1CCC2[C@@H]3CCC4CC(CCC=C(c5cc(Cl)c(OC(=O)c6ccccc6)c(C(=O)O)c5)c5cc(Cl)c(OC(=O)c6ccccc6)c(C(=O)O)c5)CC[C@]4(C)C3CC[C@@]21C (stereo not given in full) | > 100 | > 100 |  | > 100 | > 100 | > 100 | > 100 | > 100 | > 100 | > 100 | > 100 | > 100 | > 100 | > 100 |  |  |  |
| O=S1(=O)CCN(Cc2ccccc2)/C1=N\S(=O)(=O)c1ccc(Cl)cc1 | 34.3 | > 100 | 31.4 | 37 | 65.9 | 50.9 | 31 | 48 | 34.4 |  | > 100 | 34.6 | > 100 | 33 |  |  |  |
| COC(=O)CC1C(=O)OCc2c1cc1n(c2=O)Cc2c-1nc1ccccc1c2OC (stereo not given) | > 100 |  | > 100 | > 100 | > 100 | > 100 | > 100 | > 100 |  | > 100 | > 100 | 70.2 | > 100 | > 100 |  |  |  |
| O=[N+]([O-])c1cccc2nccc(NCC(O)CO)c12 (stereo not given) | 33.5 | 28.7 | 67.9 | 22.4 | 49.4 | > 63.9 | 44 | 26.3 | 19.4 | 28.4 | > 93.3 | 26.4 |  | 26.8 |  |  |  |
| CNC(=O)c1n[nH][nH]c1=O | > 100 | > 100 | > 100 | > 100 | > 100 | > 100 |  |  | > 100 | > 100 | > 100 | > 100 | > 100 | > 100 |  |  |  |
| CCC(=O)COc1ccc(NC(NC(=O)C(C(F)(F)F)C(F)(F)F)(C(F)(F)F)C(F)(F)F)cc1 | 43.7 | > 100 | 78.1 | > 100 | 56.1 | 75.3 | > 100 | > 100 | 47.6 | 77.7 |  | 48.7 | > 100 | 67.6 |  |  |  |
| COC(=O)C1(O)c2ccccc2N=C2C(=O)c3ccccc3N21 (stereo not given) | > 100 | > 100 | > 100 | > 100 | > 100 | > 100 | > 100 | > 100 | > 100 | > 100 | > 100 | > 100 |  | > 100 |  |  |  |
| NC1CC(=O)c2cc(Br)sc21 (stereo not given) | > 100 | > 100 | > 100 | > 100 | > 100 | > 100 | > 100 | > 100 |  | > 100 | > 100 | > 100 | > 100 | > 100 |  |  |  |
| CCOC(=O)c1ccc(C(=O)/C(C#N)=C2\CCCN2)[nH]1 | > 100 | > 100 | > 100 | > 100 | > 100 | > 100 |  | > 100 | > 100 | > 100 | > 100 | > 100 | > 100 | > 100 |  |  |  |
| CCOC(=O)c1c(NC(=O)Nc2ccccc2)c(C(N)=O)c2n1CCCCC2 | > 100 | > 100 | > 100 | > 100 | > 100 | > 100 | > 100 | > 100 | > 100 |  | > 100 | > 100 | > 100 | > 100 |  |  |  |
| O=c1cc(-c2cccc(OC(F)(F)F)c2)[nH]c2cc3c(cc12)OCO3 | > 32.2 | > 100 | > 100 | 2.66 | 0.0315 | 17.3 | > 100 | 1.1 | 9.16 | > 100 |  | > 89.4 | > 100 | 34.6 |  |  |  |
